Measurements: PMC5762908 (Scientific Reports, 2018)
Read-outs that look alike come from different tables or passages of the source.

How the values were obtained:
[1] = tested on: BAD KO SV40 MEF (BAD gene knockout immortalized mouse embryonic fibroblast); assay: Cytotoxic activity, alamar blue assay, BAD KO SV40 MEF; assay type: cell-based; conditions: 72 h incubation
[2] = tested on: PBMC (human peripheral blood mononuclear cells); assay: Cytotoxic activity, alamar blue assay, PBMC non-cancer cells; assay type: cell-based; conditions: 72 h incubation
[3] = tested on: advanced CRC; conditions: cited from earlier work
[4] = tested on: MRC-5 (human lung fibroblast); assay: Cytotoxic activity, alamar blue assay, MRC-5 non-cancer cells; assay type: cell-based
[5] = tested on: WT SV40 MEF (wild-type immortalized mouse embryonic fibroblast); assay: Cytotoxic activity, alamar blue assay, WT SV40 MEF; assay type: cell-based; conditions: 72 h incubation
[6] = tested on: calf thymus DNA (ctDNA); assay: DNA intercalation assay, ethidium bromide displacement; assay type: binding; conditions: complex 5, 10 and 20 µM; doxorubicin 10 µM; data not shown
Method: DNA intercalation was assessed by examining the ability of the complex to displace ethidium bromide from ctDNA (Sigma-Aldrich Co.)[32]. The DNA intercalation assay was conducted in 96-well plate (100 µL) and contained 15 µg/mL ctDNA, 1.5 µM ethidium bromide and 5, 10 and 20 µM of complex in saline solution. The vehicle (0.1% DMSO) used for diluting the compound tested was used as the negative control. Doxorubicin (10 µM) was used as the positive control. Fluorescence was measured using excitation and emission wavelengths of 320 nm and 600 nm, respectively using the spectraMax Microplate Reader (Molecular Devices).

[7] = Homo sapiens, MRC5, 72 h incubation

Molecule	IC50 ([1]; Mus musculus, Fibroblast)	IC50 ([2]; Homo sapiens, PBMC)	Response rates ([3]; 5-FU as a monotherapy)	Response rates ([3]; 5-FU combined with irinotecan and oxaliplatin)	IC50 [4, 7]	IC50 ([5]; Mus musculus, Fibroblast)	Ethidium bromide fluorescence (displacement from ctDNA) [6]	IC50 [2]	IC50 ([4]; 72 h incubation)	IC50 [1]	IC50 [5]
O=c1[nH]cc(F)c(=O)[nH]1 [5-FU, 5-fluorouracil]	7.3 µM	78 µM	10–15%	40–50%	57.9 µM	1.7 µM					
COc1cccc2c1C(=O)c1c(O)c3c(c(O)c1C2=O)C[C@@](O)(C(=O)CO)C[C@@H]3O[C@H]1C[C@H](N)[C@H](O)[C@H](C)O1 [DOX, Doxorubicin]	0.4 µM	5.1 µM			1.6 µM	0.03 µM	reduced the fluorescence intensity of ethidium bromide				
O=C1[O][Pt]2([NH][C@@H]3CCCC[C@H]3[NH]2)[O]C1=O [OXA, oxaliplatin]								12.4 µM	1.4 µM		
[Ru(5-FU)(PPh3)2(bipy)]PF6 [RU/5-FU]							did not decrease the ethidium bromide fluorescence	5.7 µM	9.5 µM	1.8 µM	1.9 µM
